Values of other authors in patent US20070264370A1, “Composition and methods for the treatment of joint pain using Angelica gigas Nakai extract and powder as combined with Glucosamine Sulfate, or Chondroitin Sulfate and HCL, or MSM, or aspirin, or Celedrin, and as combinations thereof in powder, pill, capsule, spray, liquid, and gelcap form” (priority 2006, published 2007).

Conditions: in mammal; oral administration in rats (Kim et al. 2003)

CC1(C)Oc2cc3oc(=O)ccc3cc2C[C@@H]1O [decursinol, Decursinol]
elimination half life (T1/2): about 3 hours
